We go through one sequence from patent publication US20160251402A1, “MICROPEPTIDES AND USE OF SAME FOR MODULATING GENE EXPRESSION” (UNIVERSITE PAUL SABATIER TOULOUSE III, priority 2013, published 2016).

Assay [1] deals with pre-MtmiR171b, pre-MtmiR169, pre-MtmiR169a, pre-MtmiR171a, pre-MtmiR171h, pre-MtmiR393a, pre-MtmiR393b, pre-MtmiR396a, pre-MtmiR396b. Kind of assay: Specificity: expression of different precursors of microRNAs in M. truncatula. The format is in vivo, Medicago truncatula. Particulars: plants overexpressing MtmiPEP171b1 or treated with MtmiPEP171b1 (0.1 μM). How it is done:
The expression of different microRNA precursors of Medicago truncatula (MtmiR171b SEQ ID NO: 319, MtmiR169 SEQ ID NO: 367, MtmiR169a SEQ ID NO: 368, MtmiR171a SEQ ID NO: 369, MtmiR171h SEQ ID NO: 370, MtmiR393a SEQ ID NO: 371, MtmiR393b SEQ ID NO: 372, MtmiR396a SEQ ID NO: 373 and MtmiR396b SEQ ID NO: 374) was determined and compared between control plants and plants in which MtmiORF171b encoding MtmiPEP171b1 was overexpressed (FIG. 5A), or between control plants and plants grown on culture medium containing MtmiPEP171b1 (FIG. 5B).
The total RNA was extracted from roots of M. truncatula or from tobacco leaves using the extraction kit RNeasy Plant Mini Kit (Qiagen). The reverse transcription was performed using the reverse transcriptase SuperScript II (Invitrogen) starting from 500 ng of total RNA. Three repetitions (n=3) were carried out, each with two technical repetitions. Each experiment was repeated from two to three times. The amplifications by qPCR were carried out using a LightCycler 480 System thermocycler (Roche Diagnostics) by the method described in Lauressergues et al. (Plant J., 72(3): 512-22, 2012).

Assay [2] has as its system Medicago truncatula lateral roots. Kind of assay: Number of lateral roots in M. truncatula. The format is in vivo. How it is done:
The surface of seeds of M truncatula was sterilized and they were left to germinate on agar plates for 5 days at 4° C. in the dark. The young shoots were then grown on 12-cm square plates filled with Fahraeus medium without nitrogen and containing 7.5 μM phosphate (Lauressergues et al., Plant J., 72(3): 512-22, 2012). The lateral roots were counted every day. In pots, the plants were watered every other day with modified Long Ashton medium with low phosphorus content (Balzergue et al., Journal of Experimental Botany, (62)1049-1060, 2011). The mean values of the relative expression of the genes or of the production of lateral roots were analysed using the Student test or the Kruskal-Wallis test. The error bars represent the SEM (Standard Error of the Mean). The asterisks indicate a significant difference (p<0.05).

A further assay relates to MtmiR171b. Kind of assay: Accumulation of MtmiR171b / pre-MtmiR171b in M. truncatula roots (qRT-PCR). The class given is in vivo, Medicago truncatula. Particulars: for relative expression of pre-MtmiR171b: watering once daily for 5 days with peptide at 0.01, 0.1 or 1 μM vs control plants. How it is done: (§1) The surface of seeds of M truncatula was sterilized and they were left to germinate on agar plates for 5 days at 4° C. in the dark. The young shoots were then grown on 12-cm square plates filled with Fahraeus medium without nitrogen and containing 7.5 μM phosphate (Lauressergues et al., Plant J., 72(3): 512-22, 2012). The lateral roots were counted every day. In pots, the plants were watered every other day with modified Long Ashton medium with low phosphorus content (Balzergue et al., Journal of Experimental Botany, (62)1049-1060, 2011).
(§2) The peptides were synthesized by Eurogentec or Smartox-Biotech. MtmiPEP171b1 was resuspended in a solution of 40% water/50% acetonitrile/10% acetic acid (v/v/v), and the other peptides were resuspended in water.
The RNA was extracted using the reagent Tri-Reagent (MRC) according to the manufacturer's instructions, except for precipitation of the RNA, which was carried out with 3 volumes of ethanol. The everse transcription of the RNA was carried out using the specific stem-loop primer RTprimer171b in combination with hexamers for performing the reverse transcription of RNA of high molecular weight.
In brief, 1 μg of RNA was added to the stem-loop primer MIR171b (0.2 μM), the hexamer (500 ng), the buffer RT (1×), the enzyme SuperScript Reverse transcriptase (SSIII) (one unit), the dNTPs (0.2 mM each), DTT (0.8 mM) in a final reaction mixture of 25 μl. […]
(§3) The mean values of the relative expression of the genes or of the production of lateral roots were analysed using the Student test or the Kruskal-Wallis test. […]
(§4) The composite plants having roots transformed with Agrobacterium rhizogenes were obtained by the method described in Boisson-Dernier et al. (Mol Plant-Microbe Interact, 18: 1269-1276, 2005). The transformed roots were verified and selected by observations of DsRED with a binocular fluorescence magnifier. […]

Assay [3] has as its system HAM2 (accession No. MtGI9-TC120850). Kind of assay: Expression of the HAM2 gene in M. truncatula (qRT-PCR). The class given is in vivo, Medicago truncatula. How it is done: as §1, §2
(§5) The total RNA was extracted from roots of M. truncatula or from tobacco leaves using the extraction kit RNeasy Plant Mini Kit (Qiagen). […]
as §3, §4

Assay [4] deals with HAM1 (accession No. MtGI9-TC114268). Kind of assay: Expression of the HAM1 gene in M. truncatula (qRT-PCR). The format is in vivo, Medicago truncatula. How it is done: as §1, §2, §5, §3, §4
The mark [5] stands for this setting: plant in which MtmiPEP171b1 is overexpressed vs control plant.
[6] abbreviates: watering once daily for 5 days with peptide at 0.01, 0.1 or 1 μM vs control plant.

Entries after “also recorded” stand apart in the source; their conditions may differ.

For the sequence “MLLHRLSKFCKIERDIVYIS (listed as Medicago truncatula) [MtmiPEP171b1]”, in assay [1], the “ratio of the expression of the precursors of microRNAs to control roots (specificity)” value was “only leads to an effect on the accumulation of MtmiR171b and not on the other miRNAs; also recorded: only leads to an increase in the accumulation of MtmiR171b and not of the other miRNAs”. Also, the “mean number of lateral roots” value in assay [2] (setting [5]) and in assay [2] (watering with peptide at 0.1 μM once daily for 5 days vs control plant) was “reduction in the number of lateral roots” throughout. Further, in the assay with MtmiR171b (setting [6]), the “relative expression of MtmiR171b” value is listed as “increase in the accumulation”. Further, the “relative expression of pre-MtmiR171b” value in the assay with MtmiR171b was “increase in the accumulation of pre-MtmiR171b”; with MtmiR171b (listed as MtPEP171b1), “increase in the accumulation”. Also, the “relative expression of HAM2” value is “decrease in the expression of the HAM1 and HAM2 genes” in assay [3] (setting [5]); “decrease in the expression of the HAM1 and HAM2 genes” in assay [3] (setting [6]). Also, the “relative expression of HAM1” value is “decrease in the expression of the HAM1 and HAM2 genes” in assay [4] (setting [5]); “decrease in the expression of the HAM1 and HAM2 genes” in assay [4] (setting [6]).
